Source: publication PMC12040169 (PLOS Biology, 2025)

Test: in vitro
Settings: human, hela cells, % viability

| SMILES | viability at 28.5 h, 10 µM |
| --- | --- |
| CCN(CC1CCN(C)C1)C(=O)c1cc(COc2cccc(F)c2)[nH]n1 (centres unmarked) [CBK307239] | 88.8% |
| COCCNc1nc2c(c(N3CCCC(CO)C3)n1)CCNCC2 (centres unmarked) [CBK307242] | 111% |
| CCn1ncnc1CN1CCOc2ccc(CO)cc2C1 [CBK307245] | 80.7% |
| COc1nccc(N2CCC3(CC(=O)NC3=O)C2)c1C#N (centres unmarked) [CBK307246] | 108% |
| CCC(NC(=O)CCc1cccnc1)c1cn2cccnc2n1 (centres unmarked) [CBK307247] | 81.7% |
| CCC(CNC(=O)c1coc(COc2ccc3sc(C)nc3c2)n1)OC (centres unmarked) [CBK307248] | 72.3% |
| Cn1c(=O)n(C)c2cc(CNC(=O)CC3COCCN3)ccc21 (centres unmarked) [CBK307252] | 103% |
| CNC(=O)CCc1ccccc1NC(=O)NCCSc1ncn[nH]1 [CBK307253] | 89.9% |
| CCCn1ccnc1CNc1nc2c(s1)c(C)nn2C [CBK307254] | 84.3% |
| COc1nccc(N2CCC3(CCC(=O)N(CCO)C3)CC2)c1C#N [CBK307255] | 117% |
| CSCC1CCCN(C(=O)c2cc3ncc(CCO)cn3n2)C1 (centres unmarked) [CBK307256] | 79.6% |
| Cc1cc(C)n2ncc(C(=O)N3CCCCC3c3ccccn3)c2n1 (centres unmarked) [CBK307257] | 90.4% |
| COCCOCC(=O)N1CC(=O)N(c2ccccc2C#N)CC1C (centres unmarked) [CBK307258] | 91.7% |
| CCCc1nc(NC(CC)c2nc(C)c(C)s2)c2cnn(C)c2n1 (centres unmarked) [CBK307261] | 89.1% |
| O=C(NC1CC(=O)N(CCc2ccc(F)cc2)C1)c1cn2ccsc2n1 (centres unmarked) [CBK307263] | 100% |
| O=C1CCC2(CCN1)CCN(Cc1cccc(-c3ccco3)c1)CC2 [CBK307264] | 115% |
| O=C(c1cc2ncc(CCO)cn2n1)N1CCC(c2ccccc2Cl)C1 (centres unmarked) [CBK307266] | 105% |
| Cn1nnc2cc(C(=O)NCCN3CCCCC3CO)ccc21 (centres unmarked) [CBK307268] | 84.3% |
| CCO[C@H]1CN(C)C[C@@H]1NC(=O)c1cccc2c1NCCC2 [CBK307269] | 90.4% |
| Cc1ccc2c(c1)OC(C)(C)CC2NS(=O)(=O)N1CCN(C)CC1 (centres unmarked) [CBK307271] | 103% |
| O=C(NCCc1noc(CO)n1)N(Cc1ccsc1)C1CCCCC1 [CBK307273] | 98.5% |
| Cn1c(=O)n(C)c2cc(CNC(=O)C3NCCc4[nH]cnc43)ccc21 (centres unmarked) [CBK307274] | 89.2% |
| CCOC(=O)c1cnc2c(Cl)cc(Cl)cc2c1NCCN1CCOCC1 [CBK307278] | 83.5% |

| SMILES | viability at 28.5 h, 10 µM |
| --- | --- |
| CN1CCC(NC(=O)c2cccc(OCC(=O)N3CCCCC3)c2)C1=O (centres unmarked) [CBK307281] | 78.3% |
| Cc1c[nH]c(CN(C)C(=O)c2cccc(NC(=O)C3CCCC3)c2)n1 [CBK307282] | 91.4% |
| COc1ccc(CN2CC(C(=O)O)C2)cc1Cn1cncn1 [CBK307284] | 110% |
| CCCN1CC(NS(=O)(=O)c2cc(-n3cccn3)ccc2OC)CC1=O (centres unmarked) [CBK307285] | 107% |
| Cn1ncc(N2CCC(CNC(=O)c3cc(F)ccc3Cl)C2)cc1=O (centres unmarked) [CBK307286] | 92.4% |
| CN1CCC(Cc2nc(-c3cccc(OC(F)F)c3)n(CCO)n2)CC1 [CBK307294] | 90.2% |
| COc1cccc2c(=O)n(CCCn3nc(C)nc3C)cnc12 [CBK307295] | 97% |
| COCCn1c(CO)nnc1[C@H]1C[C@@H](NC(=O)c2ccc(C)cc2F)C1 [CBK307296] | 101% |
| COc1cccc(CN2CCCC(NC(=O)c3csc(C(C)=O)c3)C2)c1 (centres unmarked) [CBK307297] | 87.6% |
| Cc1ccc(Cc2cnc(NC(=O)CN3CCCCC3)s2)cc1Cl [CBK307299] | 84.9% |
| Cc1cc(-c2cn3cc(C(=O)N4CCCC4)nc3c(=O)n2C)c(C)o1 [CBK307300] | 83.3% |
| CCOC(=O)C1CCCN(Cc2c[nH]nc2-c2ccc(OC)cc2F)C1 (centres unmarked) [CBK307304] | 91.1% |
| CCCCn1ncnc1-c1cnc2ccnn2c1C [CBK307305] | 114% |
| O=C(c1nc[nH]n1)N1CCN(c2nccc(CCC(F)(F)F)n2)CC1 [CBK307306] | 106% |
| Cc1cc2[nH]c(=O)oc2cc1S(=O)(=O)NCCN1CCCCC1CO (centres unmarked) [CBK307307] | 80.9% |
| CCn1cc(-c2nc3cc(S(=O)(=O)NC(C)C)ccc3n2C(C)C)cn1 [CBK307311] | 98.7% |
| CCN(CCc1nc2cc(OC)ccc2[nH]1)C(=O)c1ccc(=O)n(C)c1 [CBK307312] | 77% |
| CCNC(=O)NC1CC(C)(C)Cc2c1cnn2-c1ccc(OC)cc1 (centres unmarked) [CBK307313] | 90.6% |
| Cc1n[nH]c(C)c1-c1ccc2c(cnn2C)c1 [CBK307314] | 70.3% |
| CC(=O)OCc1c(C)cc(C)c(CN(C)C(C)c2ccncn2)c1C (centres unmarked) [CBK307315] | 95.1% |
| Cc1nn(CCNC(=O)C2CC(=O)N(Cc3ccccn3)C2)c(C)c1Cl (centres unmarked) [CBK307316] | 85.1% |
| COc1nc(-c2ccc(N(C)C)nc2)nn1C [CBK307317] | 100% |
| c1cnn(CCCNc2nc3nonc3nc2N2CCCCCC2)c1 [CBK307318] | 110% |

| SMILES | viability at 28.5 h, 10 µM |
| --- | --- |
| CCN(CCO)C(=O)c1coc(COc2ccc3sc(C)nc3c2)n1 [CBK307321] | 89.7% |
| COCCn1cnnc1CCNC(=O)Cc1cccc(O)c1 [CBK307322] | 112% |
| O=c1cc(N2CCOCC2)cnn1CCCCOc1ccccc1 [CBK307327] | 97.9% |
| COc1ccc(C(NC(=O)c2c(C)nc3sccn23)C2CC(O)C2)cn1 (centres unmarked) [CBK307330] | 95.3% |
| COc1ccc(Cl)cc1CN(C)C(=O)c1cc(C(C)C)n2ncnc2n1 [CBK307331] | 84.7% |
| O=C(c1ccc(N2CC=CCC2)nc1)N1CCC(N2CCOCC2)CC1 [CBK307334] | 80% |
| O=C(O)C1(Oc2ccc3ncccc3c2)CCN(CC2CCOC2)CC1 (centres unmarked) [CBK307336] | 93.2% |
| CSc1nnc(CC2CCN(C(=O)c3cccc(N)c3)CC2)n1C [CBK307339] | 77.8% |
| COCC(=O)N1CCC(Oc2ccc3ncccc3c2)(C(=O)O)CC1 [CBK307340] | 103% |
| Cc1ccc(OCc2occc2C(=O)N2CCC(O)(CN(C)C)C2)cc1 (centres unmarked) [CBK307341] | 95.6% |
| Cc1ccc(-n2cccn2)cc1S(=O)(=O)N1CCNCC1C (centres unmarked) [CBK307344] | 85.1% |
| c1ccc(N2CCN(Cc3cncn3C3CCCCC3)CC2)nc1 [CBK307345] | 109% |
| Cc1sc2ncn(CC3(O)CCCNC3)c(=O)c2c1-c1ccc(F)cc1 (centres unmarked) [CBK307346] | 96% |
| O=C(NCC(F)F)c1cn2cc(-c3cccs3)n(CC3CC3)c(=O)c2n1 [CBK307347] | 105% |
| Cc1ncccc1C(=O)NC(CC(C)C)c1nnc2n1CCNCC2 (centres unmarked) [CBK307348] | 80.5% |
| CCOC(=O)c1cn([C@H](CO)CCSC)cc(Oc2ccccc2)c1=O [CBK307349] | 98.9% |
| CCN(Cc1c[nH]nc1-c1ccc(OC)cc1F)CC1CCCO1 (centres unmarked) [CBK307350] | 102% |
| CC1(C)Cc2c(cnn2-c2ccccc2)C(NS(=O)(=O)C2CC2)C1 (centres unmarked) [CBK307351] | 102% |
| Nc1nc(C2CC(N)C2)cc(N2CCC(Oc3ccccc3Cl)CC2)n1 (centres unmarked) [CBK307356] | 88.6% |
| COCCn1ccnc1C1CCN(C(=O)COc2cccc(F)c2)CC1 [CBK307362] | 91.3% |
| CC(=O)NCCC1CCN(c2nc(C(C)(C)C)nc3c2cnn3C)CC1 [CBK307364] | 96.7% |
| CC(=O)c1cc(CN2CCCOC(Cn3cccn3)C2)cs1 (centres unmarked) [CBK307365] | 84.3% |
| COCCn1cnnc1C(C)NC(=O)c1nc2ccccc2[nH]1 (centres unmarked) [CBK307366] | 101% |

| SMILES | viability at 28.5 h, 10 µM |
| --- | --- |
| O=C(NCCF)c1cn2cc(-c3cccs3)n(CC3CC3)c(=O)c2n1 [CBK307367] | 96.8% |
| CN(CCO)C(=O)c1cn2cc(-c3cccs3)n(CC3CC3)c(=O)c2n1 [CBK307370] | 92.8% |
| Cc1ccsc1CCNC(=O)C1(Oc2cccnc2C)CCNCC1 [CBK307374] | 84.2% |
| O=C(CSc1nc(-c2cccs2)cc(C(F)(F)F)n1)NN1CCOCC1 [CBK307375] | 98.1% |
| Cc1ccn2cc(CNC(=O)N(C)CCc3scnc3C)nc2c1 [CBK307379] | 87.5% |
| CC(C)(CN1CCCC1)NC(=O)N1CCN(Cc2cccc(O)c2)CC1 [CBK307380] | 86.6% |
| CCc1nc(-c2ccc(N(C)C)nc2)nn1C [CBK307381] | 106% |
| Cc1nc(-c2cccc(OC(F)F)c2)n(C2CCN(C)CC2)n1 [CBK307382] | 97.1% |
| Cc1ccc(C(CCO)Nc2ncnc3c2c(C)nn3C)cc1 (centres unmarked) [CBK307387] | 82.1% |
| Cc1nnc(SCC(=O)N2CCN(c3ccc(Cl)cc3)CC2)s1 [CBK307389] | 87.5% |
| Cc1cc2[nH]cc(C(=O)N3CCCC3c3ccco3)c(=O)n2n1 (centres unmarked) [CBK307390] | 82.9% |
| Cc1nnc2ncc(-c3ccccc3C(=O)N(C(C)C)C(C)C)cn12 [CBK307393] | 94.7% |
| Cc1cc(C)n(CCC(=O)NCC(c2ccccn2)N2CCOCC2)n1 (centres unmarked) [CBK307396] | 105% |
| CCN1CC2(CCN(Cc3cccc(-c4ccccn4)c3)CC2)CC1=O [CBK307399] | 107% |
| CCn1c(CC2CCN(C(=O)CCn3nnnc3C)CC2)nn(C)c1=O [CBK307400] | 104% |
| CCC(C(=O)Nc1nccs1)N(C)Cc1c(C)nn(C(C)C)c1C (centres unmarked) [CBK307402] | 103% |
| CC1(C)Cc2c(cnn2-c2ccc(F)cc2)C(NS(C)(=O)=O)C1 (centres unmarked) [CBK307403] | 92.3% |
| CC(C)Cn1cncc1CNC(=O)Nc1ccc2c(cnn2C)c1 [CBK307405] | 93.8% |
| COCCN(Cc1cnn(C)c1)C(=O)Cc1ccc(Cl)cc1 [CBK307407] | 97% |
| COC(=O)c1cccc(OCC(O)Cn2ccnc2)c1 (centres unmarked) [CBK307408] | 102% |
| COCCNc1nc2c(c(N3CCCC(C#N)C3)n1)CCNCC2 (centres unmarked) [CBK307412] | 87.2% |
| CCc1c(C)sc(NC(=O)C2CCC2)c1C(=O)NCc1cccnc1 [CBK307414] | 115% |
| Cn1c(CN2CCCC2)nc2cc(NC(=O)C3CCCCC3)ccc21 [CBK307418] | 98.6% |
